Results on 6 compounds are retold here after patent publication US20200071310A1, “N-ARYL PYRAZOLES AS NRF2 REGULATORS” (GLAXOSMITHKLINE INTELLECTUAL PROPERTY DEVELOPMENT LIMITED, priority 2016, published 2020).

Test [1] concerns NQO1 specific enzyme activity in BEAS-2B cells. The experiment in a line: BEAS-2B NQO1 MTT Assay. It is filed as cell-based. The following applies: NQO1 specific activity induction, BEAS-2B cells, 48 hours, read-out: EC50. The source says:
NAD(P)H:quinone oxidoreductase 1 (NQO1), also called DT diaphorase, is a homodimeric FAD-containing enzyme that catalyzes obligatory NAD(P)H-dependent two-electron reductions of quinones and protects cells against the toxic and neoplastic effects of free radicals and reactive oxygen species arising from one-electron reductions. The transcription of NQO1 is finely regulated by NRF2, and thus NQO1 activity is a good marker for NRF2 activation. On day one, frozen BEAS-2B cells (ATCC) were thawed in a water bath, counted, and re-suspended at a concentration of 250,000 cells/mL. Fifty microliters of cells were plated in 384 well black clear-bottomed plates. Plates were incubated at 37° C., 5% CO2 overnight. On day two, plates were centrifuged and 50 nL of compound or controls were added to the cells. Plates were then incubated at 37° C., 5% CO2 for 48 hours. On day four, medium was aspirated from the plate and crude cell lysates were made by adding 13 uL of 1× Cell Signaling Technologies lysis buffer with 1 Complete, Mini, EDTA-free Protease Inhibitor Tablet (Roche) for each 10 mL of lysis buffer. After lysis plates were incubated for 20 minutes at room temperature. Two microliters of lysate were removed for use in Cell Titer Glo assay (Promega) and MTT cocktail was prepared (Prochaska et. al. 1998) for measurement of NQO1 activity. Fifty microliters of MTT cocktail is added to each well, plate is centrifuged, and analyzed on an Envision plate reader (Perkin Elmer) using Absorbance 570 nm label for 30 minutes. Product formation was measured kinetically and the pEC50 of NQO1 specific activity induction was calculated by plotting the change in absorbance (Delta OD/min) versus the log of compound concentration followed by 3-parameter fitting. pEC50 is the negative log of the EC50.

The subject of test [2] is histologic abnormalities, especially hepatic fibrosis. The following applies: rats on a choline-deficient L-amino acid-defined diet; cited from earlier work.
The subject of test [3] is COPD macrophages and alveolar macrophages from cigarette smoke-exposed mice. The following applies: cited from earlier work.
Test [4] concerns cortical damage. The following applies: rats, cerebral ischemia-reperfusion model; cited from earlier work.
Test [5] deals with cortical glutathione levels. The following applies: NRF2 wild-type but not KO mice; cited from earlier work.

Where a name gives a salt, the structure may show the parent alone. Read-outs that look alike come from different tables or passages of the source.

The term EC50 denotes the concentration at which the effect is half-maximal. Regarding `CCOc1ccc(Br)cc1CN(Cc1cccc(-n2ncc(C(=O)O)c2[C@@H]2C[C@H]2c2cn(C)nn2)c1)C1CC1` (relative stereo) [Example 55, 1-(3-(((5-bromo-2-ethoxybenzyl)cyclo-propyl)amino)methyl)phenyl)-5-((trans)-2-(1-methyl-1H-1,2,3-triazol-4-yl)cyclopropyl)-1H-pyrazole-4-carboxylic acid trifluoroacetate], in test [1], the concentration giving a half-maximal response (EC50) is 100 to 1000 nM.

Regarding `C[C@H]1Cc2ccc(C(F)(F)F)cc2S(=O)(=O)N([C@@H]2CCc3c2cccc3-n2ncc(C(=O)O)c2[C@@H]2C[C@H]2c2cn(C)nn2)C1` [Example 26b, 1-((R)-1-((S)-4-Methyl-1,1-dioxido-8-(trifluoromethyl)-4,5-dihydrobenzo[f][1,2]thiazepin-2(3H)-yl)-2,3-dihydro-1H-inden-4-yl)-5-((1R,2R)-2-(1-methyl-1H-1,2,3-triazol-4-yl)cyclopropyl)-1H-pyrazole-4-carboxylic acid], the EC50 in test [1] (Homo sapiens) is 1000 to 10000 nM.

As for `O=C(NCc1ccccn1)Nc1nnc(-c2ccco2)o1` [NK-252], in test [2], the “progression of histologic abnormalities, especially hepatic fibrosis” value was “significantly attenuated”.

`C[S+]([O-])CCCCN=C=S` (centres unmarked) [Sulforaphane]: the “expression of Macrophage Receptor with Collagenous structure (MARCO)” value in test [3] (COPD macrophages and alveolar macrophages from cigarette smoke-exposed mice) was “increases”. Further, the “bacterial phagocytosis (Pseudomonas aeruginosa, non-typable Haemophilus influenzae) and bacterial clearance” value in test [3] (ex vivo and in vivo) is given as “improving”.

In the case of `Cc1c(-c2cnccn2)ssc1=S` [oltipraz], the “progression of histologic abnormalities, especially hepatic fibrosis” value in test [2] is “significantly attenuated”.

For `CC(C)(C)c1cc(O)ccc1O` [tert-butylhydroquinone], in test [4], the cortical damage result was “reduced cortical damage”. For the same compound, in test [5], the cortical glutathione levels result is recorded as “increased in NRF2 wild-type but not KO mice”.
